pIC50: −log10 of the molar value.
Experiments:
Format in all cases: functional, organism-based
Leishmania donovani = assay: Antileishmanial activity against Leishmania donovani MHOM/NP/03/D10 promastigotes after 72 hrs by EGFP-reporter gene based fluorescence assay; settings: MHOM/NP/03/D10, 72 h
Trypanosoma congolense = assay: Antitrypanosomal activity against Trypanosoma congolense IL3000 incubated for 48 hrs measured after 4 hrs
Leishmania amazonensis = assay: Antileishmanial activity against Leishmania amazonensis promastigotes after 72 hrs by EGFP-reporter gene based fluorescence assay

Row | Compound | pIC50 (Leishmania donovani) | pIC50 (Trypanosoma congolense) | pIC50 (Leishmania amazonensis)
1 | CO[C@H]1OC=C(C(=O)OC(C)C)[C@H]2C/C=C(/C=O)CCCC(=O)[C@H]12 | 5.62 |  | 
2 | CC(=O)O/C=C1\CCC/C(C=O)=C\C[C@@H]2C(C(=O)CC=C(C)C)=CO[C@H](OC(C)=O)[C@@H]12 |  | 6.60 | 7.06

Reference: ChEMBL document CHEMBL4425181, “Synthesis and antileishmanial activity of the core structure of cristaxenicin A” (Bioorg Med Chem Lett, 2016)
